Values quoted from earlier work as cited in patent publication US10881104B2, “Arthropod control composition, formulation, and method” (priority 2013, dated 2021).

Test system: D. variabilis
Conditions: unformulated; 2 h after application

Structure (SMILES): CCCCCCCCCC(C)=O [Formulation 2-undecanone, 2-undecanone]
- repellency: 74%
